Legend:
[1] = test system: carrageenan-induced pedal edema; test: Carrageenan-induced pedal edema model; format: in vivo; conditions: Lewis rats, oral 1 or 10 mg/kg in olive oil 0.5 hour before carrageenan, paw volume after three hours
Protocol: Lewis rats (male; nine weeks age; body weight: about 250 g) were purchased from Seakku-Yoshitomi and the inflammation models such as carrageenan-induced pedal edema model (a model of rheumatoid arthritis) were prepared as follows whereby the tested substances were evaluated.
Thus, 4-tert-butylcyclopentenone ether or 4,5-di-tert-butylcyclopentenone ether in various concentrations by dissolving in olive oil (manufactured by Nacalai Tesque) was orally administered at the dose of 1 mg/10 ml/kg or 10 mg/10 ml/kg to rats which were fasted for 18 hours before initiation of the experiment.
After 0.5 hour from administration of these test drugs, 100 μl/rat of 1% suspension of carrageenan (manufactured by Wako) in a physiologically saline solution (manufactured by Otsuka Pharmaceutical) was injected to right paw to induce pedal edema. After three hours from the carrageenan injection, volume of right paw of the rat was measured by a pedal volume measuring device (manufactured by UGO BASILE). Incidentally, the measured value was expressed by calculating the increasing rate from the right paw volume of each rat measured before the carrageenan administration.

[2] = biological target: topoisomerase II (Homo sapiens, UniProt P11388); test: Topoisomerase II inhibition, pBR322 DNA relaxation by agarose gel electrophoresis; format: biochemical
Protocol: (1) One μl of 0.25 μg/μl pBR322 DNA (manufactured by Takara Shuzo) was added to a mixture of 2 μl of topoisomerase II (manufactured by TopoGEN, 2 units/μl), 2 μl of a buffer with a ten-fold diluted concentration [0.5M Tris-HCl (pH 8.0), 1.2M KCl, 0.1M MgCl2, 5 mM adenosine triphosphate and 5 mM dithiothreitol], 2 μl of 0.1% bovine serum albumin (manufactured by Takara Shuzo), 11 μl of distilled water and 2 μl of distilled water (a control) or 4,5-di-tert-butylcyclopentenone ether prepared into various concentrations by water and made to react at 37° C. After the reaction for 30 minutes, the reaction was stopped by adding 2 μl aqueous solution of 1% sodium dodecylsulfate, 50% glycerol and 0.02% Bromophenol Blue.
The above reaction solution (20 μl) was applied to 1% agarose gel prepared from agarose L03 (manufactured by Takara Shuzo) and TAE buffer [40 mM Tris, 5mM sodium acetate and 1 mM disodium ethylenediaminetetraacetate (EDTA); adjusted to pH 7.8 with acetic acid] and electrophoresis was conducted in the TAE buffer. After the electrophoresis, the gel was dipped in an aqueous solution of 1 μg/ml ethidium bromide and irradiated with ultraviolet ray to observe the electrophoretic pattern of DNA.

[3] = set-up: species or system mice; conditions: mouse, in vivo, 300 mg/kg
[4] = test system: Promyelocytic leukemia cell strain HL-60 (ATCC CCL-240); test: Growth of HL-60 cells, MTT method with microscopic observation; format: cell-based, human; conditions: HL-60, at the concentration completely suppressing growth
Protocol: (1) A 1.22, 2.44, 4.88, 9.77, 19.5, 39.1, 78.1, 156, 313, 625, 1250, 2500, 5000 or 10000 μg/ml solution (10 μl) (in 70% aqueous solution of ethanol) of 4-benzylcyclopentenone ether, 5-benzylcyclopentenone ether or 4,5-dibenzylcyclopentenone ether or a 70% aqueous solution of ethanol as a control (10 μl) was added to each well of a 96-well microtiter plate followed by drying with air. Promyelocytic leukemia cell strain HL-60 (ATCC CCL-240) was suspended in an RPMI 1640 medium containing 10% of fetal calf serum to an extent of 1×10^5 cells/ml, each 100 μl thereof was poured into each well of the above microtiter plate and incubated at 37° C. for 48 hours in the presence of 5% of CO2. Incubation was continued for four hours more after addition of 10 μl of a solution (5 mg/ml) of 3-(4,5-dimethylthiazol-2-yl)-2,5-diphenyltetrazolium bromide (MTT; manufactured by Sigma) in a phosphate-buffered aqueous saline solution and then the state of growth of the cells was observed under a microscope. Further, 100 μl of 2-propanol containing 0.04N HCl was added thereto followed by well stirring and the absorbance at 590 nm was measured.
(2) Influence of 4-tert-butylcyclopentenone ether, 5-tert-butylcyclopentenone ether or 4,5-di-tert-butylcyclopentenone ether to the growth of HL-60 cells was measured by the same method as in Example 2-(1).

Sequence of topoisomerase II (P11388 whole entry): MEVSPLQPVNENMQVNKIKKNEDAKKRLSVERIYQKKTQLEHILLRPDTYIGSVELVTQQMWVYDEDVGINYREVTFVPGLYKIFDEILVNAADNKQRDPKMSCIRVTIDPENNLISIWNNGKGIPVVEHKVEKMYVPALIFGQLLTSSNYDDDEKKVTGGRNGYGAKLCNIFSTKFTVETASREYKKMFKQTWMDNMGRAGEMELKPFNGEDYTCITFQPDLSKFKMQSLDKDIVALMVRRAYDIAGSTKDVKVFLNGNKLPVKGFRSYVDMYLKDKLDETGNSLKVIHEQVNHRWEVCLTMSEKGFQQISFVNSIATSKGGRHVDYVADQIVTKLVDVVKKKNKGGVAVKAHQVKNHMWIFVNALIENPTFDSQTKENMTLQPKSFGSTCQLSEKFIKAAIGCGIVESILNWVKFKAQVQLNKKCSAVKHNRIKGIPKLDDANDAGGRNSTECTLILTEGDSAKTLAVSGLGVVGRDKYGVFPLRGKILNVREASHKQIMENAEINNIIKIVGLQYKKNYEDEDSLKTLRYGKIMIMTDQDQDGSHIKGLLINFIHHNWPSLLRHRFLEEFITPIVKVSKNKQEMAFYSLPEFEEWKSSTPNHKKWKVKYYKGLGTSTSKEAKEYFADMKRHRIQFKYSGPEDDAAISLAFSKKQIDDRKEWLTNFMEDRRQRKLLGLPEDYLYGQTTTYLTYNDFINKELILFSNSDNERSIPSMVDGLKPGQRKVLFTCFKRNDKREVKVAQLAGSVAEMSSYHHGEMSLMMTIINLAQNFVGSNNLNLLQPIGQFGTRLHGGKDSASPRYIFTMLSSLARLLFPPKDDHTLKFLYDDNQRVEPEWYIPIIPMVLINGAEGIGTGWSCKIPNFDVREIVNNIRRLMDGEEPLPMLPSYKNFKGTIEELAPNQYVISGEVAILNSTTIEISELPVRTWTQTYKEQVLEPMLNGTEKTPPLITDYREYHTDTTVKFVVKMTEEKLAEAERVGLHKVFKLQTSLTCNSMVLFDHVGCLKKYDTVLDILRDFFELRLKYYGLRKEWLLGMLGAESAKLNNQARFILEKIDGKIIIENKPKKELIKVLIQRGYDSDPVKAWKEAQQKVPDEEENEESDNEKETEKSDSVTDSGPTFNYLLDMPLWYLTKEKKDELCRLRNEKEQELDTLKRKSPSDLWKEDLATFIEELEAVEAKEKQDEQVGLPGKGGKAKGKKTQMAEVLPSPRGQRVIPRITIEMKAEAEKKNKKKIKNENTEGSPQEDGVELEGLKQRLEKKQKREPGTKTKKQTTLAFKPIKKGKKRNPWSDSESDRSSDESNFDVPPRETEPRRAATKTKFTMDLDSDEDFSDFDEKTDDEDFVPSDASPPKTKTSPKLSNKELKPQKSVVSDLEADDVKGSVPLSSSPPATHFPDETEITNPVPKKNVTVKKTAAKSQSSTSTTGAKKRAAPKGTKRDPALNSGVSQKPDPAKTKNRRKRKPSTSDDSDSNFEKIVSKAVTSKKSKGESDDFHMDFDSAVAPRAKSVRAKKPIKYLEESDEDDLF

Structure (SMILES)	suppressing action to edema induced by carrageenan (increasing rate of pedal edema) [1]	death after single oral administration [3]	formation of apoptic body [4]	also measured
CC(C)(C)O[C@@H]1C(=O)C=C[C@H]1OC(C)(C)C (relative stereo) [4,5-di-tert-butylcyclopentenone ether]	showed an suppressing action to edema	no dead case was noted		superhelix DNA remaining ([2]; 250 μM in the reaction solution): the superhelix DNA remained to an medium extent; superhelix DNA remaining ([2]; 500 μM in the reaction solution): most of the superhelix DNA remained; superhelix DNA remaining ([2]; 1000 μM in the reaction solution): the superhelix DNA did not decrease at all; concentration in the reaction solution showing topoisomerase suppressing activity ([2]; pBR322 DNA, 37° C., 30 minutes): not less than 250 μM
O=C1C=C[C@@H](OCc2ccccc2)[C@@H]1OCc1ccccc1 (relative stereo) [4,5-dibenzylcyclopentenone ether]			Formation of apoptic body was noted	
O=C1C=C[C@@H](OCc2ccccc2)[C@@H]1O (relative stereo) [4-benzylcyclopentenone ether]			Formation of apoptic body was noted	
CC(C)(C)O[C@@H]1C=CC(=O)[C@H]1O (relative stereo) [4-tert-butylcyclopentenone ether]	showed an suppressing action to edema	no dead case was noted		
O=C1C=C[C@@H](O)[C@@H]1OCc1ccccc1 (relative stereo) [5-benzylcyclopentenone ether]			Formation of apoptic body was noted	

Source: patent US6111145A, “Cyclopentenone derivative” (Takara Shuzo Company, priority 1997, dated 2000)
